Where two headings read alike, the source gives them in different places.
Tested on: TGFβ signal
Experiment: TGFβ signal inhibitory activity, (SBE)4-Luc reporter in A549 cells (Test Examples 1A and 1B)
Format: cell-based, human
Conditions: Homo sapiens, A549, read-out: TGFβ inhibition rate, %; for inhibition at 1 µM: test compound 1 µM
Outline: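 Compounds at 3 µM and 10 µM (some 1 µM) were added with 2 ng/ml TGFβ-1 to A549 cells stably expressing an SBE-driven luciferase, then cultured 4 hr. Chemiluminescent luciferase signal gave % inhibition versus TGFβ-alone and no-TGFβ controls.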

[1] = test compound 3 µM, TGFβ-1 2 ng/ml, 4 hr, Table 1A
[2] = test compound 10 µM, TGFβ-1 2 ng/ml, 4 hr, Table 1A
[3] = test compound 3 µM, Reference Examples, Table 1B
[4] = test compound 10 µM, Reference Examples, Table 1B
[5] = 3 µM, compounds of Reference Examples (Test Example 1B)
[6] = 10 µM, compounds of Reference Examples (Test Example 1B)

SMILES	inhibition at 3 µM [1] [%]	inhibition at 3 µM [5] [%]	inhibition at 10 µM [6] [%]	further results
c1ccc(-c2nc3ncccc3cc2Oc2ccnc3ccncc23)cc1 [Compound 74, 4-(2-Phenyl-[1,8]naphthyridin-3-yloxy)-[1,6]naphthyridine]	53	–	–	inhibition at 10 µM [2]: 90%
COc1ccc(Oc2ccnc3cc(OCCCl)c(OC)cc23)c(C(C)=O)c1 [r119]	–	–	–	inhibition at 3 µM [3]: 96%; inhibition at 10 µM [4]: 97%
Cc1cc(Oc2ccnc3ccc(OCc4ccccc4)cc23)c(-c2ccccn2)nc1C [Compound 136, 3-(6-Benzyloxy-quinolin-4-yloxy)-5,6-dimethyl-[2,2']bipyridine]	93	–	–	inhibition at 10 µM [2]: 100%
COc1cc2c(Oc3ccc(C)cc3C(=O)c3ccccc3)ccnc2cc1OCCN1CCC(CO)CC1 [Compound r126]	–	–	–	inhibition at 3 µM [3]: 100%; inhibition at 10 µM [4]: 100%
COc1cc2c(Oc3cc4ccccc4nc3C(C)=O)ccnc2cc1O [Compound r390]	–	16	64	–
COc1cc2c(Oc3cc(C)c(C)nc3-c3ccc(C)cn3)ccnc2cc1O [Compound r453]	–	72	98	–
CCC(=O)c1cc(Cl)ccc1Oc1ccnc2cc(OC)c(OC)cc12 [r46]	–	–	–	inhibition at 3 µM [3]: 70%; inhibition at 10 µM [4]: 100%
COc1cc2c(Oc3cc(C)c(C)nc3-c3ccccc3)ccnc2cc1O [Compound r332]	–	97	100	–
COc1cc2nccc(Oc3ccc4c(c3)COC(=O)N4)c2cc1OC [Compound r23, 6-[(6,7-Dimethoxy-4-quinolyl)oxy]-1,4-dihydro-2H-3,1-benzoxazin-2-one]	–	–	–	inhibition at 3 µM [3]: 56%; inhibition at 10 µM [4]: 91%
COc1cc2nccc(Oc3cc4ccccc4nc3-c3ccc(F)cc3F)c2cc1OC [r286]	–	93	100	–
Cc1cc(Oc2ccnc3cc(-c4ncccn4)ccc23)c(-c2ccccn2)nc1C [Compound 177, 5,6-Dimethyl-3-(7-pyrimidin-2-yl-quinolin-4-yloxy)-[2,2']blpyridine]	98	–	–	inhibition at 10 µM [2]: 100%
COc1cc2nccc(Oc3cc(C)c(C)cc3-c3ccccn3)c2cc1OC [Compound r169]	–	99	100	–
Cc1cc(Oc2ccnc3cc(Cl)ccc23)c(-c2ccccn2)nc1C [Compound 13, 3-(7-Chloro-quinolin-4-yloxy)-5,6-dimethyl-[2,2']bipyridine]	99	–	–	inhibition at 10 µM [2]: 100%
COc1cc2c(Oc3cc4cccnc4nc3-c3ccccc3)ccnc2cc1Cl [Compound 61, 3-(7-Chloro-6-methoxy-quinolin-4-yloxy)-2-phenyl-[1,8]naphthyrridine]	98	–	–	inhibition at 10 µM [2]: 100%
Cc1ccc(Oc2ccnc3ccc(OCCCN4CCCCC4)cc23)c(-c2ncccn2)n1 [Compound 212, 4-(6-Methyl-2-pyrimidin-2-yl-pyridin-3-yloxy)-6-(3-piperidin-1- ? -propoxy)-quinoline]	55	–	–	–
COc1cc2nccc(Oc3cc4ccncc4nc3-c3ccccc3)c2cc1OC [Compound 98, 3-(6,7-Dimethoxy-quinolin-4-yloxy)-2-phenyl-[1,7]naphthyridine]	94	–	–	inhibition at 10 µM [2]: 100%
Cc1cc(Oc2ccnc3cc(-c4ccc(O)cc4)ccc23)c(-c2ccccn2)nc1C [Compound 107, 4-[4-(5,6-Dimethyl-[2,2']bipyridinyl-3-yloxy)-quinolin-7-yl]-phenol]	100	–	–	inhibition at 10 µM [2]: 100%
COc1cc2nccc(Oc3ccc(C)nc3-c3ccncc3)c2cc1OC [Compound r263]	–	82	99	–
c1ccc(-c2cc3nccc(Oc4cc5cccnc5nc4-c4ccccc4)c3s2)cc1 [Compound 72, 2-Phenyl-3-(2-phenyl-thieno[3,2-b]pyridin-7-yloxy)-[1,8]naphthyridine]	99	–	–	inhibition at 1 µM (TGFβ-1 2 ng/ml, 4 hr, Table 1A): 81%
COc1cc2c(Oc3ccc(C)cc3C(=O)c3ccccc3)ccnc2cc1OCCCl [r123]	–	–	–	inhibition at 3 µM [3]: 98%; inhibition at 10 µM [4]: 100%
COc1cc2nccc(Oc3ccc(C)nc3-c3ccc(C)cc3)c2cc1OC [Compound r242]	–	68	99	–
COc1cc2nccc(Oc3cnc4ccccc4c3)c2cc1OC [r275]	–	45	90	–
COc1cc2nccc(Oc3ccc(Br)cc3C(C)=O)c2cc1OC [r34]	–	–	–	inhibition at 3 µM [3]: 0%; inhibition at 10 µM [4]: 78%
COc1cc2nccc(Oc3cc(Cl)c(C)cc3C(C)=O)c2cc1OC [Compound r184]	–	100	100	–
COc1cc2nccc(Oc3ccc(C)cc3C(=O)CC(C)(C)C)c2cc1OC [Compound r55]	–	–	–	inhibition at 3 µM [3]: 53%; inhibition at 10 µM [4]: 98%

SMILES	inhibition at 3 µM [1] [%]	inhibition at 3 µM [5] [%]	inhibition at 10 µM [6] [%]	further results
COc1cc2c(Oc3cc4ccccc4nc3C)ccnc2cc1O [Compound r352, 6-Methoxy-4-(2-methyl-quinolin-3-yloxy)-quinolin-7-ol]	–	14	68	–
COc1cc2nccc(Oc3ccc(C)nc3)c2cc1OC [Compound r115, 4-[(6-Methyl-3-pyridyl)oxy]-6,7-dimethoxyquinoline]	–	–	–	inhibition at 3 µM [3]: 74%; inhibition at 10 µM [4]: 97%
COc1cc2c(Oc3cc4ccccc4nc3C)ccnc2cc1-c1ccncc1 [r414]	–	82	100	–
COc1ccc(Oc2ccnc3cc(O)c(OC)cc23)c(C(C)=O)c1 [r312]	–	50	76	–
COc1cc2nccc(Oc3cc4ccccc4cc3C(C)=O)c2cc1OC [Compound r200, 1-[3-(6,7-Dimethoxy-quinolin-4-yloxy)-naphthalene-2-yl]-ethanone]	–	94	100	–
COc1cc2nccc(Oc3ccc(C)nc3C#N)c2cc1OC [Compound r213, 3-(6,7-Dimethoxy-quinolin-4-yloxy)-6-methyl-pyridin-2-carbonitrile]	–	28	65	–
Clc1ccc2nccc(Oc3cc4cccnc4nc3-c3ccccc3)c2c1Cl [Compound 57, 3-(5,6-Dichloro-quinolin-4-yloxy)-2-phenyl-[1,8]naphthyridine]	75	–	–	inhibition at 10 µM [2]: 100%
COc1cc2c(Oc3cc(C)c(C)nc3-c3ccc(C)cn3)ccnc2cc1OCC(O)CO (stereo not drawn) [Compound r463]	–	77	99	–
c1ccc(-c2nc3ncccc3cc2Oc2ccnc3ccccc23)cc1 [Compound 52, 2-Phenyl-3-(quinolin-4-yloxy)-[1,8]naphthyridine]	96	–	–	inhibition at 10 µM [2]: 100%
Cc1ccc(Oc2ccnc3ccc(OCCCCl)cc23)c(-c2ncccn2)n1 [Compound 210, 6-(3-Chloro-propoxy)-4-(6-methyl-2-pyrimidin-2-yl-pyridin-3-yloxy)-quinoline]	87	–	–	–
COc1cc2c(Oc3cc4ccccc4nc3C)ccnc2cc1OCCN1CCCCC1 [Compound r358]	–	100	100	–
COc1cc2nccc(Oc3ccccc3C(=O)OC(C)C)c2cc1OC [Compound r93]	–	–	–	inhibition at 3 µM [3]: 44%; inhibition at 10 µM [4]: 88%
COc1cc2nccc(Oc3cc4cccnc4nc3-c3ccncc3)c2cc1OC [Compound 89, 3-(6,7-Dimethoxy-quinolin-4-yloxy)-2-pyridin-4-yl-[1,8]naphthyridine]	36	–	–	inhibition at 10 µM [2]: 77%
COc1ccc(C(C)=O)c(Oc2ccnc3cc(OC)c(OC)cc23)c1 [r31]	–	–	–	inhibition at 3 µM [3]: 49%; inhibition at 10 µM [4]: 98%
COC(=O)c1cc2c(Oc3cc4cccnc4nc3-c3ccccc3)ccnc2cc1Cl [Compound 148, Methyl 7-chloro-4-(2-phenyl-[1,8]naphthyridin-3-yloxy)-quinoline-6-carboxylate]	58	–	–	inhibition at 10 µM [2]: 98%
COc1cc2c(Oc3cc4ccccc4nc3C)ccnc2cc1OCCNC(=O)CC(C)(C)CC(=O)O [Compound r357]	–	27	60	–
COc1ccc2nccc(Oc3cc(C)c(C)nc3-c3ccccn3)c2n1 [Compound 121, 8-(5,6-Dimethyl-[2,2']bipyridinyl-3-yloxy)-2-methoxy-[1,5]naphthyridine]	98	–	–	inhibition at 10 µM [2]: 100%
COc1cc2nccc(Oc3cc4ccccc4nc3-c3cccnc3)c2cc1OC [Compound r288]	–	94	100	–
COc1cc2nccc(Oc3cc(C)nc4ccc(F)cc34)c2cc1OC [Compound r308]	–	21	56	–
COc1ccc(Oc2ccnc3cc(OC)c(OC)cc23)c(C(=O)c2ccccc2)c1 [r74]	–	–	–	inhibition at 3 µM [3]: 27%; inhibition at 10 µM [4]: 84%
CCCOC(=O)c1cc2ccccc2cc1Oc1ccnc2cc(OC)c(OC)cc12 [r201]	–	79	100	–
COc1cc2nccc(Oc3cc(C)c(C)nc3-c3ccccn3)c2cc1C(N)=O [Compound 22, 4-(5,6-Dimethyl-[2,2']bipyridin-3-yloxy)-7-methoxy-quinoline-6-carboxylic acid amide]	99	–	–	inhibition at 1 µM (TGFβ-1 2 ng/ml, 4 hr, Table 1A): 81%
COc1cc2nccc(Oc3ccc(C)nc3C(C)=O)c2cc1OC [Compound r117, 1-{[3-(6,7-Dimethoxy-4-quinolyl)oxy]-6-methyl-2-pyridyl}-1-ethanone]	–	–	–	inhibition at 3 µM [3]: 84%; inhibition at 10 µM [4]: 98%
COc1cc2c(Oc3ccc(C)cc3C(=O)c3ccccc3)ccnc2cc1OCCCCNCCO [r142]	–	–	–	inhibition at 3 µM [3]: 100%; inhibition at 10 µM [4]: 100%

Reference: patent EP1724268A1, “COMPOUND HAVING TGF-BETA INHIBITORY ACTIVITY AND PHARMACEUTICAL COMPOSITION CONTAINING SAME” (KIRIN BEER KABUSHIKI KAISHA, priority 2004, dated 2005)
